Measurements reported in PubChem BioAssay AID179 (DTP/NCI, 2004).
“And” between values parts separate entries of the source, which are not always exact repeats. Equal entries are not always repeated. The source made the active and inactive calls.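 The calls were made as follows: active = compounds giving half or more protection of infected cells from virus-caused growth loss, again on retest; inactive = the rest.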

Tested on: CEM cells HIV-1 protection, formazan growth assay
Experiment: NCI AIDS Antiviral Assay
Conditions: for IC50: measured here: growth of uninfected CEM cells
Procedure: The ability of compounds to protect human CEM cells from HIV-1 infection is measured as a screen for new compounds capable of inhibiting the HIV virus. Five concentrations of drug were tested on uninfected and infected cells and cell growth was measured using a soluble formazan assay. […] Compounds that provided at least 50% protection were retested. Compounds that provided at least 50% protection on retest were listed as moderately active. Compounds that reproducibly provided 100% protection were listed as confirmed active. […] Note that the inability to provide protection could be due to toxicity.

SMILES | EC50 | IC50 | outcome
CC1(C)OCC(C2OC(N3O[C@H](CI)C[C@@H]3c3ccccc3)C3OC(C)(C)OC23)O1 (stereo partly drawn) | 138 µM | > 200 µM | 
CC1(C)CC(=O)C2=C(C1)Nc1ccc(Cl)cc1NC2c1cccc([N+](=O)[O-])c1 (stereo not drawn) | > 200 µM | 102 µM | 
O=C(NCCCCN1CC2CCCC2C1)C(C1CCCCC1)C1CCCCC1 (stereo not drawn) | > 200 µM | 10.7 µM | 
COc1ccc2nc(N/N=C/C(C)=N/Nc3cc(C)c4cc(OC)ccc4n3)cc(C)c2c1 | > 100 µM | 14.5 µM | 
Cc1cc(Cl)ccc1N=C1NC(=O)C(CC(=O)Nc2ccc(Cl)cc2Cl)S1 (stereo not drawn) | > 407 µM | 224 µM | 
CS/C(=N\c1nccs1)NC(=O)c1cccc(Cl)c1 | > 58.9 µM | > 58.9 µM | 
CC(C)(C)OC[C@H](O)CC#N | > 200 µM | > 200 µM | 
Cc1c(Cl)cccc1NC(=O)CN(CC(C)C)CC(C)C | > 200 µM | 33.1 µM | 
NS(=O)(=O)c1ccc(NNc2c3ccccc3nc3ccccc23)cc1 | > 200 µM | 10.7 µM | 
COC(=O)CC(c1ccc(OC)cc1)C(CC(=O)OC)c1ccc(OC)cc1 (stereo not drawn) | > 67.6 µM | 60.3 µM | 
CCCC#CCC(CC#CCCC)(C(=O)O)C(=O)O | > 490 µM | > 490 µM | 
C/C(O)=C(\C=N\C(=S)Nc1cccc(C(F)(F)F)c1)C(=O)Nc1ccccc1C | > 100 µM | 75.9 µM | 
COc1ccc(OC)c(N=Nc2c(O)c3ccccc3[nH]c2=O)c1 | 47.9 µM | > 200 µM | 
CSc1nc2[nH]c(=O)n(O)c(=O)c2n1Cc1ccccc1 | > 200 µM | 3.8 µM | 
CCCc1cc(=O)oc2c3c(c4c(c12)OC(C)(C)C=C4)O[C@@H](C)[C@H](C)C3=O | 4.9 µM | 97.7 µM | 
CC(=O)Nc1ccc(/C=C(\C#N)c2ccccc2)cc1 | > 200 µM | > 200 µM | 
C1=CC2C=CC(C=C1)[PH+]2c1ccccc1.C1=CC2C=CC(C=C1)[PH+]2c1ccccc1.[C-]#[O+].[C-]#[O+].[C-]#[O+].[Fe] (stereo not drawn) | > 17.8 µM | > 17.8 µM | 
O=c1c(-c2cccc(O)c2)coc2cc(O)c(O)cc12 | > 200 µM | 10.5 µM | 
COC(=O)C1=C(C)NC2(C)SC1C(C)C2C(=O)OC (stereo not drawn) | > 871 µM | 490 µM | 
Cn1c(=O)c2nsnc2n(C)c1=O | > 661 µM | > 661 µM | 
CC(C)(C)C[PH+](CC[PH+](CC(C)(C)C)CC(C)(C)C)CC(C)(C)C.[C-]#[O+].[C-]#[O+].[C-]#[O+].[C-]#[O+].[Mo] | > 3.47 µM | > 3.47 µM | 

SMILES | EC50 | IC50 | outcome
c1ccc(CSC2(SCc3ccccc3)CCCC2)cc1 |  |  | inactive
O=C(O)CCC(NC(=O)c1ccc(OCc2nc3cc(C(F)(F)F)ccc3nc2-c2ccccc2)cc1)C(=O)O (stereo not drawn) | > 200 µM | > 200 µM | 
FC(F)(F)c1cccc(C=NC23CC4CC(CC(C4)C2)C3)c1 | > 17 µM | > 17 µM | 
CC(=O)O[C@H]1CC[C@]2(C)C3=CC[C@]4(C)[C@@H](C(C)=O)CC[C@H]4[C@@]34C=C[C@]2(C1)C1C(=O)OC(=O)C14 (stereo partly drawn) | > 200 µM | 70.8 µM | 
Cc1ccnc(NS(=O)(=O)c2ccc(N=Nc3c(N)n(C)c(=O)n(C)c3=O)cc2)n1 |  |  | inactive
O=C1NC(=O)C(Cc2cccc(OCc3ccccc3)c2)C(=O)N1 | > 200 µM | > 200 µM | 
S=c1nn[nH]c2ccccc12 | > 219 µM | > 219 µM | 
CC(=O)O[C@@H]1CC[C@@]2(C)C(CC[C@H]3[C@@H]4CC[C@H]([C@H](C)CCc5nc6ccc(C)cc6[nH]5)[C@@]4(C)CC[C@@H]32)C1 (stereo partly drawn) | > 200 µM | 16.6 µM | 
O=[N+]([O-])c1ccc(N=Nc2c(F)cc(NCS(=O)(=O)O)cc2F)cc1 | > 100 µM | > 100 µM | 
Cc1ccc(Cl)c(-c2nc3cc(Cl)c(Cl)cc3[nH]2)c1 | > 60.3 µM | > 60.3 µM | 
CCN(CC)CCN1C(=O)c2cccc3cc([N+](=O)[O-])cc(c23)C1=O | > 200 µM | 1.48 µM | 
CCN1C[C@]2(COC)CCC(=O)C34[C@@H]5C[C@@H]6C(O)[C@@H]5[C@](O)(C[C@@H]6OC)[C@@H](C(OC)[C@@H]32)[C@H]14 (stereo partly drawn) |  |  | inactive
C/C(=N\NC(N)=O)c1sc(-c2nc(C)c(/C(C)=N/NC(N)=O)s2)nc1C | > 9.55 µM | > 9.55 µM | 
Cc1cc2c(cc1C)[n+](=O)c(C(=O)CC(=O)C(=O)Nc1ccccc1C(C)C)c(C)n2[O-] | > 575 µM | > 575 µM | 
COc1cc2c(cc1O)C1COc3cc4c(cc3C1O2)CCC(C)(C)O4 (stereo not drawn) | > 200 µM | 11.5 µM | 
Nc1ccn(C2OC(COP(=O)(O)O)C(O)C2O)c(=O)n1 (stereo not drawn) (tested in a mixture with another compound) | > 200 µM | 40.7 µM | 
O=C(C(=O)n1ncc(Cl)c(Cl)c1=O)n1ncc(Cl)c(Cl)c1=O | > 93.3 µM | 50.1 µM | 
COc1ccc(/C=N/Nc2nc(-c3cc4oc(=O)n(C)c4cc3Cl)cs2)cc1OC | > 11.7 µM | > 11.7 µM | 
On1ccc(=S)c2ccccc21 | > 200 µM | 36.3 µM | 
Cc1ncc2c(c1O)COC2=O | > 1510 µM | > 1510 µM | 
CCN=C(c1ccc(NC(=O)c2ccc(C(=O)Nc3ccc(C(=NCC)N(CC)CC)cc3)cc2)cc1)N(CC)CC | > 200 µM | 64.6 µM | 

SMILES | EC50 | IC50 | outcome
CC1(C)C(=O)C2(C#N)CCC1C2 (stereo not drawn) | > 200 µM | > 200 µM | 
Nc1ccccc1SC(CC(=O)c1ccccc1)c1ccc2c(c1)OCO2 (stereo not drawn) | > 200 µM | 10.7 µM | 
O=C1CCC2(c3ccc(F)cc3)Nc3ccccc3N12 (stereo not drawn) |  |  | inactive
N#C/C(=C/n1c(=S)sc2ccccc21)c1nc2ccccc2s1 | > 200 µM | 102 µM | 
CCOC(C)CCCS(=O)(=O)O (stereo not drawn) | > 200 µM | > 200 µM | 
O=C(/C=C/c1ccc(Cl)cc1)c1ccncc1 | > 40.7 µM | 38 µM | 
O=C1CCS(=O)(=O)O1 | > 1820 µM | > 1820 µM | 
CCOC(=O)C1=CC(C(C)CC(=O)CC(=O)O)CC1 (stereo not drawn) |  |  | active
C/C(=N/O)C1CC(C)([N+](=O)[O-])CCC1(C)O (stereo not drawn) | > 200 µM | > 200 µM | 
CNC(=O)OC(C)CN1c2ccccc2Sc2ccccc21 (stereo not drawn) | > 200 µM | 41.7 µM | 
CCC(C)c1cccc(C)c1NC(=O)C(=O)Cc1nc2ccccc2s1 (stereo not drawn) | > 186 µM | > 186 µM | 
O=C1c2ccccc2Sc2ccccc2N1CCCCCN1CCN(c2ccc(F)cc2)CC1 | > 200 µM | 8.91 µM | 
COc1ccc(-c2onc(-c3c(C)cc(C)cc3C)c2C2=NCCCN2)cc1 | > 50.1 µM | > 50.1 µM | 
COC(=O)c1cc(C#N)[nH]c1-c1cc(Br)cs1 | > 200 µM | 11.7 µM | 
CC(=O)N1CN2C(=O)CCC2c2ccccc21 (stereo not drawn) |  |  | inactive
Nn1c(=S)[nH]n2cnnc12 | > 1580 µM | 186 µM | 
c1ccc2c(c1)cnn1cnnc21 | > 1480 µM | 661 µM | 
COc1cc(/C=C2/SC(c3ccccc3)N(c3ccccc3)C2=O)cc(OC)c1OC (stereo not drawn) | > 20 µM | 4.47 µM | 
CCOP(=S)(NN=C1CCCC1)OCC | > 200 µM | > 200 µM | 
CC1(C)CN2Cc3cccc(n3)CN(CC(C)(C)[N-]C(=O)C(C)(OCc3ccccc3)C2)CC(C)(OCc2ccccc2)C(=O)[N-]1.[Cu+2] (stereo not drawn) | > 200 µM | 117 µM | 
COC(=O)[C@H](CCSC)NC(=O)N[C@H](C)c1ccccc1 | > 200 µM | > 200 µM | 

SMILES | EC50 | IC50 | outcome
O=c1c(-c2ccccc2)nnc2n(Cc3ccccc3)c3ccccc3n12 | > 200 µM | 112 µM | 
O=C(Nc1ccc(N=Nc2ccccc2)cc1)Sc1ccccc1C(=O)O |  |  | inactive
COc1ccc(/C=C/C(=O)N[C@@H]2CCN3CCCC23)cc1 (stereo partly drawn) |  |  | inactive
CCCC(C)(COC(N)=O)COC(=O)NC1CC1 (stereo not drawn) | > 200 µM | > 200 µM | 
CC(=O)OCCn1c(Cc2ccc(C)cc2)nn(C(C)=O)c1=O | > 200 µM | > 200 µM | 
CN(C)CCNC(=O)c1cccc2c1Oc1c(cccc1[N+](=O)[O-])O2 | > 20 µM | 0.245 µM | 
C=C(C)[C@@H]1CC[C@]2(C(=O)O)CC[C@]3(C)[C@H](CCC4[C@@]5(C)CC[C@H](C(=O)/C=C/c6ccc(O)c(O)c6)C(C)(C)[C@@H]5CC[C@]43C)[C@@H]12 (stereo partly drawn) | > 200 µM | 2.29 µM | 
COc1ccc(C(C#N)NNC(=O)c2ccccc2O)cc1OC (stereo not drawn) | > 79.4 µM | 4.07 µM | 
CC(=O)OC1(CSc2ccccc2)CCCCC1 | > 200 µM | 49 µM | 
N#CCC(=O)N/N=C1/C(=O)NC(=O)C(=O)C1c1nc2ccccc2s1 (stereo not drawn) |  |  | inactive
C=CC[C@]1(C(C)Cc2ccc(OC)c(OC)c2)C[C@@H](OC)C=CC1=O (stereo partly drawn) | > 10 µM | 2.88 µM | 
CC[C@@]1(O)C[C@H](OC2CC(N(C)C)C(OC3CC(O)C(OC4CCC(=O)C(C)O4)C(C)O3)C(C)O2)c2c(cc3c(c2O)C(=O)c2c(O)ccc(O)c2C3=O)[C@H]1C(=O)OC (stereo partly drawn) | > 6.31 µM | 0.0055 µM and 0.0158 µM | 
CC1(C)N=C(N)N=C(N)N1c1ccc(Cl)c(Cl)c1 | > 0.01 µM | 0.00427 µM | 
OCC1OC(c2scc3c(=S)nc[nH]c23)C(O)C1O (stereo not drawn) | > 200 µM | 12.6 µM | 
C=C(C(N)=O)c1ccc([N+](=O)[O-])o1 | > 200 µM | 3.47 µM | 
COc1cc2c(cc1OC)C(C1c3cc(OC)c(OC)cc3-c3c(OC)c(OC)cc4c3C1N(C)CC4)C1c3c(cc(OC)c(OC)c3-2)CCN1C (stereo not drawn) |  |  | inactive
COC(=O)c1ccc(NC(=O)O/N=C(\Cl)C(C)C)cc1 | > 20 µM | 3.63 µM | 
N#CNC(N)=NCc1ccccc1 | 155 µM | 204 µM | 
CC(C)(C)c1cc(C(=O)Nc2cc(Br)c(Br)cc2S(N)(=O)=O)cc(C(C)(C)C)c1O | > 200 µM | 8.13 µM | 
COc1ccccc1C1SCc2nc3ccccc3n21 (stereo not drawn) | > 91.2 µM | 36.3 µM | 
CCCCCCCCCCCCCCCC/C(C(=O)OC)=C(/O)C(=O)OCC | > 8.51 µM | > 8.51 µM | 
